Experiments:
dandelions = assay: Plant community response at Anaconda Smelter Superfund site; format: in vivo; conditions: where moderate to high levels of water soluble copper and zinc are measured in the soil
[1] = test system: invasive species including cheatgrass, dandelions, and perennial noxious weeds; assay: Plant community survey in area contaminated with copper from a copper smelter (Example 22); format: in vivo; conditions: soil copper contamination levels measured at various sites
Source text: (§5) The prevalence of various invasive species including cheatgrass, dandelions, and perennial noxious weeds (forbs) was observed and correlated with soil copper contamination levels measured at various sites.

spotted knapweed = assay: Plant community response at Anaconda Smelter Superfund site; format: in vivo; conditions: gradient of water soluble copper and zinc in soil
native perennial grasses = conditions: in vivo
Source text: as §5

French marigold = conditions: in vivo; cited from earlier work
chlorophyllitic plants [2] = assay: Photosynthetic disruption by glyphosate; format: in vivo
Experimental: Extensive research has documented that plants are often sensitive to relatively minute concentrations or exposures to unique synthetic compounds or combinations of naturally occurring elements, including micro-nutrients. For example, glyphosate (aka ROUNDUP®, a synthetic Monsanto product) is effective at causing photosynthetic disruption in chlorophyllitic plants at an application rate of as little as 0.75 pounds active ingredient per acre, which equates to only approximately 8 mg/square foot of application, equivalent to approximately 14 ppm application rate. The American Phytopathological Society (APS) reported that micronutrients are generally toxic when present in high amounts, although ‘high concentrations’ are not clearly defined, and little toxicity have been reported at exceptionally low micro-nutrient concentrations. This occurrence is known as micro-nutrient toxicity syndrome (MTS). […] In addition, plants can vary considerably from species to species in their susceptibility to nutrient toxicities. For example, Lee and others (1996) reported inducing seed geranium (Pelargonium x hortorum) micronutrient toxicity symptoms by applying nutrient solutions containing 0.5 mg/L B, Cu, or Zn, or as little as 0.25 mg/L Mo, in combination with nitrogen, phosphorus, and potassium. […]

chlorophyllitic plants [3] = conditions: as little as; cited from earlier work
invasive plant species = assay: Hypothetical dose-response testing of invasive species on a rangeland site (Example 21); format: in vivo; conditions: for biomass reduction: zinc-sensitive invasive species
Experimental: In this example, a rangeland site has become colonized by three invasive species. From dose-response testing it can be determined that 2 of the invasive species can be controlled by boron fertilization while the third is tolerant of boron, but not zinc. Of the two boron-sensitive invasive plant species, one is intolerant to a soil solution level of 3 mg boron per liter, while the other is sensitive to 7 milligrams per liter.

[4] = test system: seed geranium (Pelargonium x hortorum); conditions: in combination with nitrogen, phosphorus, and potassium; cited from earlier work
humans = conditions: U.S. EPA, 2005 carcinogen assessment guidelines; cited from earlier work
[5] = test system: bluebunch wheatgrass (Pseudoroegenaria spicata); assay: Greenhouse pot study watered with boron solutions; conditions: watered 3 times in final 2 weeks
Experimental: (§6) In a greenhouse pot study Kentucky bluegrass, bluebunch wheatgrass, cheatgrass, dandelion and spotted knapweed were grown from seed in potting soil for a period of approximately 26 weeks. Plants were watered with tap water for the first 24 weeks and then 3 times with boron solutions during the final 2 weeks of the study. Boron concentrations used were 5, 10, 25 and 50 mg B/L in addition to a tap water treatment and a commercial plant fertilizer solution.

[6] = test system: dandelion (Taraxacum officinale); assay: Greenhouse pot study watered with boron solutions; format: in vivo
Source text: (§1) Greenhouse pot irrigation study, Bozeman, Mont. (FIG. 6).

[7] = test system: Kentucky bluegrass (Poa pratensis); assay: Greenhouse pot study watered with boron solutions; format: in vivo; conditions: increasing boron concentrations
Source text: as §1

[8] = test system: cheatgrass (Bromus tectorum); assay: Greenhouse pot study watered with boron solutions; format: in vivo; conditions: increasing boron concentrations
Source text: as §1

[9] = test system: spotted knapweed (Centaurea maculosa); assay: Greenhouse pot study watered with boron solutions; format: in vivo
Source text: as §1

[10] = test system: bluebunch wheatgrass (Pseudoroegenaria spicata); conditions: in vivo
Experimental: as §6

cheatgrass seed [11] = assay: Greenhouse petri dish cheatgrass seed germination experiment; format: in vivo, Bromus tectorum
Experimental: Greenhouse petri dish experiments were completed to evaluate the effect of minute concentrations of boron on cheatgrass seed germination. Treatment concentrations (in addition to a zero treatment control) ranged from 10 to 50 mg B/L dissolved in distilled water. […] A follow-up experiment, essentially repeating the previously described petri dish experiment, with inclusion of a treatment rate as low as 5 mg/L, was completed. It was observed that cheatgrass seeds germinated at the 5 mg/L concentration, with death of the seedlings occurring within 7 days of germination (data not shown).

[12] = test system: cheatgrass (Bromus tectorum); assay: Cheatgrass-affected rangeland site two-year study, surface liquid boron applications (Example 5); format: in vivo; conditions: treated rangeland site
Source text: At a cheatgrass-affected rangeland site plant cover over a two-year study period is shown in response to water soluble soil boron concentrations resulting from surface liquid boron applications. Perennial grass cover in the treated rangeland site was increased to between 60 and 70 percent cover while cheatgrass cover decreased and was less than 3% (FIG. 5A) while adjacent untreated rangeland had less perennial grass cover and more cheatgrass after 2 years. (Soil sampling of the 0-6 inch depth was performed annually over a five year period to determine the water soluble boron concentrations both in the treated and untreated areas (FIG. 5B). Transects were used to measure plant cover annually at sites co-located with soil sampling.

[13] = test system: cheatgrass, dandelion, spotted knapweed and Kentucky bluegrass seed; assay: Benchtop seed germination in covered petri dishes with boron solutions (Example 8); format: in vivo; conditions: boron concentrations reached 25 mg/L; ten days after treatment
Experimental: Germination percentage of cheatgrass, dandelion, spotted knapweed and Kentucky bluegrass seed was measured ten (10) days after treatment with solutions of increasing boron concentration (FIG. 8).

perennial grass = assay: Rangeland site five-year study, surface liquid boron applications (Example 4); format: in vivo; conditions: treated area
cheatgrass seed [14] = assay: Benchtop seed germination in covered petri dishes with boron solutions (Example 8); format: in vivo, Bromus tectorum; conditions: boron 5 to 50 mg/L; 20 seeds; ten days after treatment
Experimental: Germination percentage of cheatgrass, dandelion, spotted knapweed and Kentucky bluegrass seed was measured ten (10) days after treatment with solutions of increasing boron concentration (FIG. 8). Cheatgrass appeared most sensitive to boron solution resulting in essentially 100% death of 20 cheatgrass seeds in covered petri dishes, when treated with solutions with boron concentration ranging from 5 to 50 mg/L. Control treatment using tap water successful germination percentage exceeded 56%.

[15] = test system: dandelion (Taraxacum officinale); assay: Field trial of boron fertilization in existing perennial grass communities near Belgrade, Mont.; format: in vivo; conditions: over 5 year period after a single application of boron fertilizer; decreased from a mean of 59%
Experimental: (§2) Field trials were established in existing perennial grass communities near Belgrade, Mont., with high levels of cheatgrass and dandelion invasion into existing perennial grasses to examine use of boron (elemental symbol: B) fertilization for weed control. Minute amounts of boron, in doses as low as 5 mg B/L (soluble) or 2-3 lbs B (dry) active ingredient per acre, were applied to the plots.
(§3) Over the same period of time dandelion cover decreased from a mean of 59% to 15%, and cheatgrass cover decreased from a mean of 47% to 1%, while perennial grass cover increased from 42% to 71%.
(§4) Formulation D, Using the boron-containing compound Na2B4O7.10 H20, the 0.5 mg/L soil concentration applied in the field experiment described in Example 1 was attained by adding 2.55 grams per 100 square foot. The 50 mg/L soil concentration was attained by adding 255 grams per 100 square feet. These concentrations were applied either dry or by dissolving the boron-containing compound in water and then applied as a liquid to field plots.

[16] = test system: perennial grass (several species); assay: as above; format: in vivo; conditions: over 5 year period after a single application of boron fertilizer; increased from 42%
Experimental: as §2, §3, §4

[17] = test system: cheatgrass (Bromus tectorum); assay: as above; format: in vivo
Experimental: as §2, §3, §4

[18] = increasing boron concentrations
[19] = lowest boron solution concentration used, 5 mg B/L, watered 3 times in final 2 weeks

Compound: [Cu] [copper]
- occurrence of dandelions (dandelions): not found
- occurrence of invasive species versus soil copper [1]: primarily observed at lower copper contamination sites
- occurrence of spotted knapweed (spotted knapweed): found growing in soils with low to high levels
- tolerance of native perennial grasses to soil copper (native perennial grasses): tolerate higher copper soil levels
- concentration inducing micro-nutrient toxicity (French marigold): 4000 ng/mL

Compound: O=C(O)CNCP(=O)(O)O [glyphosate]
- effective application rate, equivalent per area (chlorophyllitic plants [2]; equates to 0.75 pounds active ingredient per acre): approximately 8 mg/square foot
- effective application rate, equivalent (chlorophyllitic plants [2]; equivalent to 0.75 pounds active ingredient per acre): approximately 14 ppm
- application rate effective at causing photosynthetic disruption (chlorophyllitic plants [3]): 0.75 pounds active ingredient per acre

Compound: [Mn+2] [manganese]
- concentration inducing micro-nutrient toxicity (French marigold): 1000 ng/mL

Compound: [Mo] [molybdenum]
- concentration inducing micro-nutrient toxicity (French marigold): 5000 ng/mL

Compound: [Zn] [zinc]
- biomass reduction (invasive plant species; 0.4 mg zinc per liter): 38%
- biomass reduction (invasive plant species; 0.9 milligrams per liter): 89%
- occurrence of dandelions (dandelions): not found
- occurrence of spotted knapweed (spotted knapweed): found growing in soils with low to high levels
- nutrient solution concentration inducing micronutrient toxicity symptoms [4]: 0.5 mg/L

Compound: borate salts
- carcinogenicity classification (humans): not likely to be carcinogenic to humans

Compound: boron
- tolerated boron concentration [5]: ≥ 50 mg B/L
- plant health index (color and vigor) response [6, 18]: declined in vigor
- phytotoxic response [6, 19]: marked phytotoxicity
- plant health index (color and vigor) response [7]: declined in vigor
- plant health index (color and vigor) response [8]: declined in vigor
- plant health index (color and vigor) response [9, 18]: declined in vigor
- rate of decline in plant health compared with other species ([9]; increasing solution boron concentration): most rapid decline in plant health
- phytotoxic response [9, 19]: marked phytotoxicity
- soil solution level to which invasive species is intolerant (invasive plant species; first boron-sensitive invasive species): 3 mg boron per liter
- soil solution level to which invasive species is sensitive (invasive plant species; second boron-sensitive invasive species): 7 milligrams per liter
- plant health index (color and vigor) response [10]: little change in plant health
- cheatgrass seed germination (observation) (cheatgrass seed [11]; 5 mg/L, follow-up experiment): germinated
- death of seedlings, time after germination (cheatgrass seed [11]; 5 mg/L, follow-up experiment): ≤ 7 days
- cheatgrass seed germination (cheatgrass seed [11]; 10 to 50 mg B/L in distilled water, after 14 days): zero
- cheatgrass seed germination (cheatgrass seed [11]; boron solution 10 mg/L, 14 days post treatment (FIG. 2B)): 0%
- cheatgrass cover [12]: less than 3%
- germination of any species [13]: Very little germination
- perennial grass densities (perennial grass): increase over time
- death of cheatgrass seeds (cheatgrass seed [14]): ~100%
- mean dandelion cover [15]: 15%
- perennial grass cover [16]: 71%
- emerging or mature cheatgrass plants in plots ([17]; following growing seasons, doses as low as 5 mg B/L or 2-3 lbs B per acre): near-total absence
- mean cheatgrass cover ([17]; over 5 year period after a single application of boron fertilizer, decreased from a mean of 47%): 1%
- concentration inducing micro-nutrient toxicity (French marigold): 500 ng/mL
